Source: PubChem BioAssay (NCI)
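How tested: cells in 96-well plates exposed to compound for 48 hours at five concentrations. GI50: concentration for 50% inhibition of growth. TGI: concentration producing complete growth inhibition.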

Experiments:
Assay in all cases: inhibition of tumour cell growth, NCI panel, 48 h
786-0 renal = system: 786-0 renal
A498 renal = system: A498 renal
A549 NSCLC = system: A549 NSCLC
ACHN renal = system: ACHN renal
BT-549 breast = system: BT-549 breast
CAKI-1 renal = system: CAKI-1 renal
CCRF-CEM leukemia = system: CCRF-CEM leukemia
COLO 205 colon = system: COLO 205 colon
DU-145 prostate = system: DU-145 prostate
EKVX NSCLC = system: EKVX NSCLC
HCT-116 colon = system: HCT-116 colon
HCT-15 colon = system: HCT-15 colon
HL-60(TB) leukemia = system: HL-60(TB) leukemia
HOP-62 NSCLC = system: HOP-62 NSCLC
HOP-92 NSCLC = system: HOP-92 NSCLC
HS 578T breast = system: HS 578T breast
HT29 colon = system: HT29 colon
IGROV1 ovarian = system: IGROV1 ovarian
K-562 leukemia = system: K-562 leukemia
KM12 colon = system: KM12 colon
LOX IMVI melanoma = system: LOX IMVI melanoma
M14 melanoma = system: M14 melanoma
MCF7 breast = system: MCF7 breast
MDA-MB-231 breast = system: MDA-MB-231 breast
MDA-MB-435 = system: MDA-MB-435
MOLT-4 leukemia = system: MOLT-4 leukemia
NCI-H226 lung = system: NCI-H226 lung
NCI-H460 lung = system: NCI-H460 lung
NCI-H522 lung = system: NCI-H522 lung
OVCAR-3 ovarian = system: OVCAR-3 ovarian
OVCAR-4 ovarian = system: OVCAR-4 ovarian
OVCAR-8 ovarian = system: OVCAR-8 ovarian
PC-3 prostate = system: PC-3 prostate
RPMI-8226 leukemia = system: RPMI-8226 leukemia
RXF 393 renal = system: RXF 393 renal
SF-268 CNS = system: SF-268 CNS
SF-295 CNS = system: SF-295 CNS
SF-539 CNS = system: SF-539 CNS
SK-MEL-2 melanoma = system: SK-MEL-2 melanoma
SK-MEL-28 melanoma = system: SK-MEL-28 melanoma
SK-MEL-5 melanoma = system: SK-MEL-5 melanoma
SK-OV-3 ovarian = system: SK-OV-3 ovarian
SN12C renal = system: SN12C renal
SNB-19 CNS = system: SNB-19 CNS
SNB-75 CNS = system: SNB-75 CNS
SR leukemia = system: SR leukemia
SW-620 colon = system: SW-620 colon
T-47D breast = system: T-47D breast
TK-10 renal = system: TK-10 renal
U251 CNS = system: U251 CNS
UACC-257 melanoma = system: UACC-257 melanoma
UACC-62 melanoma = system: UACC-62 melanoma
UO-31 renal = system: UO-31 renal

Compound O=C(NCc1ccc(Cl)cc1Cl)c1ccc(NC2=C(Cl)C(=O)N(Cc3ccccc3)C2=O)cc1 has a GI50 (786-0 renal) of 30.1 µM, a TGI (786-0 renal) greater than 100 µM and a GI50 (A498 renal) of 28.1 µM. It also gave a TGI (A498 renal) of 56.8 µM, a GI50 (A549 NSCLC) of 36 µM and a TGI (A549 NSCLC) greater than 100 µM. It also gave a GI50 (ACHN renal) of 20.8 µM, a TGI (ACHN renal) of 48.1 µM and a GI50 (BT-549 breast) of 20.3 µM. It also gave a TGI (BT-549 breast) of 42 µM, a GI50 (CAKI-1 renal) of 18.2 µM and a TGI (CAKI-1 renal) of 52.4 µM. It also gave a GI50 (CCRF-CEM leukemia) of 1.41 µM, a TGI (CCRF-CEM leukemia) of 7.65 µM and a GI50 (COLO 205 colon) of 23.3 µM. It also gave a TGI (COLO 205 colon) of 66.5 µM, a GI50 (DU-145 prostate) of 39.9 µM and a TGI (DU-145 prostate) greater than 100 µM. For the same compound, the GI50 (EKVX NSCLC) was 36.4 µM, the TGI (EKVX NSCLC) was greater than 100 µM and the GI50 (HCT-116 colon) was 53.5 µM. For the same compound, the TGI (HCT-116 colon) was greater than 100 µM, the GI50 (HCT-15 colon) was 32.4 µM and the TGI (HCT-15 colon) was greater than 100 µM. It also gave a GI50 (HL-60(TB) leukemia) of 14.8 µM, a TGI (HL-60(TB) leukemia) of 60.8 µM and a GI50 (HOP-62 NSCLC) of 36.3 µM. The TGI (HOP-62 NSCLC) was greater than 100 µM, the GI50 (HOP-92 NSCLC) was 10.6 µM and the TGI (HOP-92 NSCLC) was 27.8 µM. The GI50 (HS 578T breast) was 23.4 µM, the TGI (HS 578T breast) was 52.7 µM and the GI50 (HT29 colon) was 54.3 µM. It also gave a TGI (HT29 colon) greater than 100 µM, a GI50 (IGROV1 ovarian) of 15.8 µM and a TGI (IGROV1 ovarian) greater than 100 µM. It also gave a GI50 (K-562 leukemia) of 9.98 µM, a TGI (K-562 leukemia) of 30.9 µM and a GI50 (KM12 colon) of 38.4 µM. For the same compound, the TGI (KM12 colon) was greater than 100 µM, the GI50 (LOX IMVI melanoma) was 7.02 µM and the TGI (LOX IMVI melanoma) was greater than 100 µM. For the same compound, the GI50 (M14 melanoma) was 58.7 µM, the TGI (M14 melanoma) was greater than 100 µM and the GI50 (MCF7 breast) was 11.9 µM. For the same compound, the TGI (MCF7 breast) was 48.9 µM, the GI50 (MDA-MB-231 breast) was 21.1 µM and the TGI (MDA-MB-231 breast) was 55.9 µM. For the same compound, the GI50 (MDA-MB-435) was 33.4 µM, the TGI (MDA-MB-435) was greater than 100 µM and the GI50 (MOLT-4 leukemia) was 7.17 µM. It also gave a TGI (MOLT-4 leukemia) of 23.9 µM, a GI50 (NCI-H226 lung) of 26.8 µM and a TGI (NCI-H226 lung) greater than 100 µM. For the same compound, the GI50 (NCI-H460 lung) was 17.8 µM, the TGI (NCI-H460 lung) was 47 µM and the GI50 (NCI-H522 lung) was 24.6 µM. It also gave a TGI (NCI-H522 lung) greater than 100 µM, a GI50 (OVCAR-3 ovarian) of 31.9 µM and a TGI (OVCAR-3 ovarian) greater than 100 µM. The GI50 (OVCAR-4 ovarian) was 18.5 µM, the TGI (OVCAR-4 ovarian) was 40.3 µM and the GI50 (OVCAR-8 ovarian) was 12 µM. For the same compound, the TGI (OVCAR-8 ovarian) was 26.5 µM, the GI50 (PC-3 prostate) was 14.3 µM and the TGI (PC-3 prostate) was 31.9 µM. It also gave a GI50 (RPMI-8226 leukemia) of 4.45 µM, a TGI (RPMI-8226 leukemia) of 44.5 µM and a GI50 (RXF 393 renal) of 18.7 µM. The TGI (RXF 393 renal) was 52.6 µM, the GI50 (SF-268 CNS) was 18.9 µM and the TGI (SF-268 CNS) was 49.1 µM. The GI50 (SF-295 CNS) was 32.8 µM, the TGI (SF-295 CNS) was greater than 100 µM and the GI50 (SF-539 CNS) was 21.3 µM. The TGI (SF-539 CNS) was 39.1 µM, the GI50 (SK-MEL-2 melanoma) was 78.8 µM and the TGI (SK-MEL-2 melanoma) was greater than 100 µM. For the same compound, the GI50 (SK-MEL-28 melanoma) was 41.6 µM, the TGI (SK-MEL-28 melanoma) was greater than 100 µM and the GI50 (SK-MEL-5 melanoma) was 24 µM. The TGI (SK-MEL-5 melanoma) was 66.7 µM, the GI50 (SK-OV-3 ovarian) was 57.5 µM and the TGI (SK-OV-3 ovarian) was greater than 100 µM. For the same compound, the GI50 (SN12C renal) was 26.7 µM, the TGI (SN12C renal) was 75.5 µM and the GI50 (SNB-19 CNS) was 44.1 µM. For the same compound, the TGI (SNB-19 CNS) was greater than 100 µM, the GI50 (SNB-75 CNS) was 17.8 µM and the TGI (SNB-75 CNS) was 34.2 µM. The GI50 (SR leukemia) was 0.734 µM, the TGI (SR leukemia) was 2.55 µM and the GI50 (SW-620 colon) was 26.9 µM. For the same compound, the TGI (SW-620 colon) was greater than 100 µM, the GI50 (T-47D breast) was 51.3 µM and the TGI (T-47D breast) was greater than 100 µM. The GI50 (TK-10 renal) was 28.7 µM, the TGI (TK-10 renal) was 91.4 µM and the GI50 (U251 CNS) was 15.7 µM. For the same compound, the TGI (U251 CNS) was 34.2 µM, the GI50 (UACC-257 melanoma) was 61 µM and the TGI (UACC-257 melanoma) was greater than 100 µM. The GI50 (UACC-62 melanoma) was 18.4 µM, the TGI (UACC-62 melanoma) was 39.8 µM and the GI50 (UO-31 renal) was 3.41 µM. For the same compound, the TGI (UO-31 renal) was greater than 100 µM.
